Measured values taken from PubChem BioAssay (NCI).
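Method: 48-hour compound exposure of cells in 96-well plates, five concentrations, linear interpolation of endpoints. The concentration for 50% growth inhibition is given as GI50. TGI: total growth inhibition.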

Experiments:
Experiment in all cases: NCI-60 cell line screen, 48 h
[1] = test system: NCI-H226 lung
[2] = test system: SF-539 CNS
[3] = test system: NCI-H522 lung
[4] = test system: MALME-3M melanoma
[5] = test system: OVCAR-5 ovarian
[6] = test system: OVCAR-8 ovarian
[7] = test system: SNB-75 CNS
[8] = test system: RXF 393 renal
[9] = test system: SNB-19 CNS
[10] = test system: HT29 colon

SMILES	TGI [1]	TGI [2]	TGI [3]	TGI [4]	TGI [5]	TGI [6]	TGI [7]	TGI [8]	TGI [9]	TGI [10]	GI50 [1]	GI50 [2]	GI50 [3]	GI50 [4]	GI50 [5]	GI50 [6]	GI50 [7]	GI50 [8]	GI50 [9]	GI50 [10]
COc1ccc(C(=O)/C=C/c2ccc(OCC#N)cc2)cc1	88.8 µM	45.4 µM	35.6 µM	43.7 µM	> 100 µM	> 100 µM	> 100 µM	30.7 µM	> 100 µM	> 100 µM										
Nc1nc(N)c(CCCCc2ccccc2)c(N)n1	> 100 µM	> 100 µM	> 100 µM	> 100 µM	> 100 µM	> 100 µM	> 100 µM	> 100 µM	> 100 µM	> 100 µM										
CCc1c(C)nc2sc3c(N)ncnc3c2c1C	> 25 µM	> 25 µM	> 25 µM	> 25 µM	> 25 µM	> 25 µM	> 25 µM	> 25 µM	> 25 µM	> 25 µM	> 25 µM	> 25 µM	> 25 µM	> 25 µM	> 25 µM	> 25 µM	> 25 µM	> 25 µM	> 25 µM	> 25 µM
CC1c2ccccc2CCN1c1ccc(CO)c(Cl)c1 (stereo not given)	0.228 µM	47.3 µM	50.5 µM	54.6 µM	0.187 µM	52.6 µM	75 µM	23.8 µM	> 100 µM	25.2 µM	0.0491 µM	19.1 µM	17.4 µM	22.7 µM	0.0427 µM	5.77 µM	20 µM	1.2 µM	34.5 µM	0.383 µM
Cc1ccncc1C(N)=O	> 100 µM	> 100 µM	> 100 µM	> 100 µM	> 100 µM	> 100 µM	> 100 µM	> 100 µM	> 100 µM	> 100 µM	> 100 µM	> 100 µM	> 100 µM	> 100 µM	> 100 µM	> 100 µM	> 100 µM	> 100 µM	> 100 µM	> 100 µM
Oc1c(-c2cc(C(F)(F)F)[nH]n2)cc(Cl)c(OCc2ccc(Cl)cc2)c1-c1ccc(Cl)c(C(F)(F)F)c1	2.68 µM	2.72 µM	1.72 µM	2.19 µM	7.91 µM	6.45 µM	1.74 µM	1.67 µM	6.62 µM	5.83 µM	0.917 µM	0.749 µM	0.167 µM	0.789 µM	2.01 µM	0.192 µM	0.496 µM	0.226 µM	0.565 µM	1.4 µM
Cn1ccnc1Oc1ccc(Cl)cc1	44.3 µM	31.7 µM	11.6 µM	10.2 µM	35.7 µM	22.4 µM	51.8 µM	37.1 µM	> 100 µM	26.6 µM										
COc1cc2c(cc1F)C(c1ccccc1Cl)=Nc1c(n[nH]c1C)N2	16.3 µM	2.39 µM	20.9 µM	32.7 µM	22.8 µM	30.4 µM	0.724 µM	1.46 µM	22.3 µM	8.83 µM	0.532 µM	0.389 µM	0.415 µM	18 µM	6.76 µM	6.29 µM	0.189 µM	0.242 µM	8.69 µM	0.587 µM
O=Nc1c(-c2c(O)[nH]c3ncccc23)[nH]c2ccccc12	> 100 µM	> 100 µM	> 100 µM	> 41.5 µM	> 100 µM	> 100 µM	> 100 µM	> 100 µM	> 100 µM	> 100 µM	15.3 µM	> 100 µM	> 53.6 µM	8.83 µM	96.9 µM	> 100 µM	2.56 µM	> 100 µM	> 100 µM	> 94.2 µM
